Data taken from patent US5304369A, “Chlorohexidine adduct and method of preparing same” (Ivoclar AG, priority 1991, dated 1994).
≈ marks a conversion by molar mass, not a printed value. Where two headings read alike, the source gives them in different places.

Assays:
[1] = higher concentrations; cited from earlier work
Streptococcus mutans [2] = details: cited from earlier work
Streptococcus mutans [3] = test: Agar diffusion test with Streptococcus mutans (inhibiting zone diameters); format: cell-based; details: for Bactericidal effectiveness (in words): concentrations smaller than or equal to 0.01 wt.-%; for Antibacterial action (in words): 0.003 wt.-%
Description: For this purpose, culture suspensions of Streptococcus mutans were added to a liquid Agar comprising yeast extract and dextrose. After the Agar plates had solidified, a hole of 10 mm diameter was cut out, into which 0.1 ml of the solution to be tested was poured in each case. After 24 hours of incubation at 37° C., the diameters of the inhibiting zones were measured for each sample, which were duplicated in each case.

[4] = Side-effects in use (bitter taste, discolorations, irritations of the mucosa)
[5] = Solubility in common solvents and reactive diluents; format: physicochemical
[6] = background, cited from earlier work
[7] = 0.03 wt. %, 0.1 ml in 10 mm hole, 24 hours, 37° C.

For `[H]/N=C(\N/C(=N/[H])NCCCCCCNC(=N)NC(=N)Nc1ccc(Cl)cc1)Nc1ccc(Cl)cc1` [chlorohexidine, 1,6-bis-(N^5-p-chlorophenyl-N'-diguanido)-hexane], the “Dis-colorations of the tongue, teeth, prostheses and fillings” value [1] is given as “can lead to unwanted dis-colorations”, the “Effectiveness against bacteria of the type Streptococcus mutans (in words)” value (Streptococcus mutans [2]) is given as “effective” and the “Bactericidal effect vis-a-vis Streptococcus mutans (in words)” value (Streptococcus mutans [2]; small concentrations) is given as “greatly weakened”. The “Bactericidal effectiveness (in words)” value (Streptococcus mutans [3]) was “clearly exceeded”.
With `[F][Sn][F]` [Solution C, stannous difluoride] the Inhibiting zone diameter (Streptococcus mutans [3]; 0.003 wt. %, 0.1 ml in 10 mm hole, 24 hours, 37° C., * = Not effective) was 10 mm, the “Antibacterial action (in words)” value (Streptococcus mutans [3]) was “Not effective” and the “Antibacterial action (in words)” value (Streptococcus mutans [3]; listed as stannous difluoride) was “an antibacterial action can no longer be detected”. For the same compound, the Inhibiting zone diameter (Streptococcus mutans [3]; 0.01 wt. %, 0.1 ml in 10 mm hole, 24 hours, 37° C.) was 11 mm, the Inhibiting zone diameter (Streptococcus mutans [3]; [7]) was 20 mm and the “Antibacterial effectiveness (in words)” value (Streptococcus mutans [3]; 0.03 wt.-%) was “even stronger action”.
With `[H]/N=C(\N/C(=N/[H])NCCCCCCNC(=N)NC(=N)Nc1ccc(Cl)cc1)Nc1ccc(Cl)cc1` [chlorohexidine adduct, chlorohexidine hexahydrofluoride] the “Unwanted side-effects (bitter taste, discolorations of tooth materials, irritations of the mucosa)” value [4] was “no unwanted side-effects”, the Solubility ([5]; Acetone) was 0.03 wt. % and the Solubility ([5]; Decandiol dimethacrylate (D3 MA)) was < 0.005 wt. %. The Solubility ([5]; Ethanol) was 0.005 wt. %, the Solubility ([5]; Ethyl acetate) was 0.02 wt. % and the Solubility ([5]; Triethylene glycol dimethacrylate (SR-205)) was < 0.005 wt. %. The Solubility ([5]; Water (pH value 2 to 9.7), read-out: Solubility) was 0.3 mg/mL (≈ 594 µM), the “Solubility (in words)” value ([5]; common solvents) was “quite a low solubility” and the Inhibiting zone diameter (Streptococcus mutans [3]; 0.003 wt. %, 0.1 ml in 10 mm hole, 24 hours, 37° C., * = Not effective, listed as Solution B) was 12 mm. The “Antibacterial effectiveness (in words)” value (Streptococcus mutans [3]; 0.01 to 0.003 wt.-%) was “still very high”, the Inhibiting zone diameter (Streptococcus mutans [3]; 0.01 wt. %, 0.1 ml in 10 mm hole, 24 hours, 37° C., listed as Solution B) was 15 mm and the Inhibiting zone diameter (Streptococcus mutans [3]; [7]) was 17 mm. For the same compound, the “Antibacterial effectiveness (in words)” value (Streptococcus mutans [3]; 0.03 wt.-%) was “comparable with that of chlorohexidine gluconate”, the “Antibacterial effectiveness (in words)” value (Streptococcus mutans [3]; 0.03 wt.-%, listed as adduct according to the invention) was “completely comparable” and the “Bactericidal effectiveness (in words)” value (Streptococcus mutans [3]) was “clearly superior to stannous difluoride”.
Compound `[H]/N=C(\N/C(=N/[H])NCCCCCCNC(=N)NC(=N)Nc1ccc(Cl)cc1)Nc1ccc(Cl)cc1` [Solution A] has a zone of inhibition at 0.003 % (Streptococcus mutans [3]; Streptococcus mutans, 24 h, 0.003 wt. %, 0.1 ml in 10 mm hole, 24 hours, 37° C., * = Not effective, read-out: Inhibiting zone diameter) of 11 mm, a zone of inhibition at 0.01 % (Streptococcus mutans [3]; Streptococcus mutans, 24 h, 0.01 wt. %, 0.1 ml in 10 mm hole, 24 hours, 37° C., read-out: Inhibiting zone diameter) of 13 mm and a zone of inhibition at 0.03 % (Streptococcus mutans [3]; Streptococcus mutans, 24 h, 0.03 wt. %, 0.1 ml in 10 mm hole, 24 hours, 37° C., read-out: Inhibiting zone diameter) of 17 mm. The “Solubility (in words)” value ([6]; listed as digluconate) was “water-soluble”.
For `[H]/N=C(\N/C(=N/[H])NCCCCCCNC(=N)NC(=N)Nc1ccc(Cl)cc1)Nc1ccc(Cl)cc1` [diacetate], the “Solubility (in words)” value [6] is listed as “sparingly soluble”.
